Values after ≈ are worked out from the molar mass of the structure shown. Where two headings read alike, the source gives them in different places.
Assays:
[1] = tested on: Fusarium graminearum; assay: microbe, parasite or virus in culture; assay type: cell-based; conditions: Fusarium graminearum, read-out: Median Effective Concentration (EC50) for Growth Inhibition
[2] = tested on: Fusarium asiaticum; assay: microbe, parasite or virus in culture; assay type: cell-based; conditions: Fusarium asiaticum, read-out: Median Effective Concentration (EC50) for Growth Inhibition
[3] = tested on: wheat scab; assay type: in vivo; conditions: Carbendazim 40 g a.i. per mu, control agent
[4] = tested on: wheat scab; assay type: in vivo; conditions: Carbendazim 40 g a.i. per mu
[5] = tested on: leaf blight; parameters: species or system wheat; conditions: in vivo
[6] = tested on: rust; parameters: species or system wheat; conditions: in vivo
[7] = parameters: species or system wheat; conditions: in vivo
[8] = tested on: wheat scab; assay type: in vivo; conditions: Carbendazim 50 g a.i.
[9] = tested on: wheat scab; assay type: in vivo; conditions: 80 g of 50% of Carbendazim Wettable Powder

COC(=O)Nc1nc2ccccc2[nH]1 [Carbendazim, carbendazim]
EC50 [1]: 0.45 µg/mL (≈ 2.35 µM) | EC50 [2]: 0.45 µg/mL (≈ 2.35 µM) | Disease Index Prevention Effect % Actual Prevention Effect [3]: 67.5% | Disease Index Prevention Effect % Head Blight [4]: 38.60% | Disease Index Prevention Effect % Leaf Blight [5]: 48.50% | Disease Index Prevention Effect % Rust [6]: 61.20% | Thousand Kernel Weight [7]: 41.60 g | Disease Index Prevention Effect % Head Blight [8]: 49.04% | Disease Index Prevention Effect % Head Blight [9]: 64.6%

— patent publication US10588316B2 (priority 2015, dated 2020)
